From ChEMBL document CHEMBL3045131, “Cyclopenta[b]benzofurans from Aglaia species with pronounced antifungal activity against rice blast fungus (Pyricularia grisea)” (J Agric Food Chem, 2000)
In brackets after ≈: the same amount, converted by molar mass. Activity calls are given as the source filed them. The calls are words filed in the database; no cut-off is given here.

Key:
Assay type in all cases: functional, organism-based
Alternaria citri [1] = experiment: Antifungal activity against Alternaria citri CBS 192.81; VIAM MA1628 assessed as inhibition of spore germination by microdilution technique linked with digital image analysis
Pyricularia grisea = experiment: Antifungal activity against Magnaporthe grisea VIAM MA1627 assessed as inhibition of spore germination by microdilution technique linked with digital image analysis
Fusarium avenaceum = experiment: Antifungal activity against Fusarium avenaceum VIAM MA1512 assessed as inhibition of spore germination by microdilution technique linked with digital image analysis
Alternaria citri [2] = experiment: Antifungal activity against Alternaria citri CBS 192.81; VIAM MA1628 assessed as inhibition of spore germination at 200 ug/ml by microdilution technique linked with digital image analysis

Structure (SMILES)	EC50 (Alternaria citri [1]) [µg/mL]	EC90 (Alternaria citri [1]) [µg/mL]	MIC (Alternaria citri [1]) [µg/mL]	EC90 (Pyricularia grisea) [µg/mL]	MIC (Pyricularia grisea) [µg/mL]	EC50 (Fusarium avenaceum) [µg/mL]	EC90 (Fusarium avenaceum) [µg/mL]	MIC (Fusarium avenaceum) [µg/mL]	EC50 (Pyricularia grisea) [µg/mL]	Activity (Alternaria citri [2])
CN(CC[C@H](N)CC(=O)N[C@H]1C=C[C@H](n2ccc(N)nc2=O)O[C@@H]1C(=O)O)C(=N)N [BLASTICIDIN_S]	6 (≈ 14.2 µM)	53 (≈ 125 µM)	50 (≈ 118 µM)	> 200	> 200	0.4 (≈ 0.947 µM)	7 (≈ 16.6 µM)	25 (≈ 59.2 µM)	–	–
CCCCNC(=O)n1c(NC(=O)OC)nc2ccccc21 [BENOMYL]	> 200	> 200	> 200	84 (≈ 289 µM)	200 (≈ 689 µM)	–	> 200	100 (≈ 344 µM)	–	–
COC(=O)[C@H]1[C@@H](O)[C@@]2(O)c3c(OC)cc(OC)cc3O[C@@]2(c2ccc(OC)cc2)[C@@H]1c1ccccc1 [AGLAFOLIN]	44 (≈ 89.3 µM)	171 (≈ 347 µM)	200 (≈ 406 µM)	8 (≈ 16.2 µM)	3 (≈ 6.09 µM)	1.6 (≈ 3.25 µM)	38 (≈ 77.2 µM)	100 (≈ 203 µM)	0.05 (≈ 0.102 µM)	–
COc1ccc([C@@]23Oc4cc(OC)cc(OC)c4[C@]2(O)[C@H](O)C[C@H]3c2ccccc2)cc1 [ROCAGLAOL]	6 (≈ 13.8 µM)	24 (≈ 55.2 µM)	50 (≈ 115 µM)	0.3 (≈ 0.69 µM)	1.6 (≈ 3.68 µM)	0.4 (≈ 0.921 µM)	9 (≈ 20.7 µM)	25 (≈ 57.5 µM)	0.01 (≈ 0.023 µM)	inactive
COC(=O)[C@@H]1[C@@]2(O)c3c(cc4c(c3OC)OCO4)O[C@]1(c1ccc(OC)cc1)[C@H](c1ccccc1)[C@H]2C(=O)N1CCCC1NC(=O)C(C)C (some centres not stated) [THAPSAKINACETATE A]	–	–	–	> 200	> 200	–	–	–	> 200	–
COc1ccc(C2C(=O)Oc3cc4c(c(OC)c32)OCO4)cc1 (configuration not stated) [AGLALACTONE]	–	–	–	> 200	> 200	–	–	–	> 200	–
COc1ccc([C@@]23Oc4cc5c(c(OC)c4[C@]2(O)[C@H](O)[C@H](C(=O)N(C)C)[C@H]3c2ccccc2)OCO5)cc1 [AGLAROXIN A]	–	–	–	> 200	100 (≈ 192 µM)	–	–	–	1.4 (≈ 2.69 µM)	–
CNC(=O)[C@H]1[C@@H](O)[C@@]2(O)c3c(OC)cc(OC)cc3O[C@@]2(c2ccc(OC)cc2)[C@@H]1c1ccccc1 [DESMETHYL ROCAGLAMIDE]	–	–	–	146 (≈ 297 µM)	100 (≈ 203 µM)	–	–	–	7 (≈ 14.2 µM)	–
COc1ccc([C@@]23Oc4cc(OC)cc(OC)c4[C@]2(O)[C@H](O)[C@H](C(=O)N(C)C)[C@H]3c2ccccc2)cc1 [ROCAGLAMIDE]	> 200	> 200	> 200	35 (≈ 69.2 µM)	25 (≈ 49.4 µM)	8 (≈ 15.8 µM)	66 (≈ 131 µM)	200 (≈ 396 µM)	0.9 (≈ 1.78 µM)	–
COc1ccc([C@]2(C(=O)O)Oc3cc4c(c(OC)c3C(=O)[C@H](C(=O)N3CCCC3NC(=O)C(C)C)[C@H]2c2ccccc2)OCO4)cc1 (some centres not stated) [THAPOXEPINE A]	–	–	–	> 200	> 200	–	–	–	> 200	–
COC(=O)[C@H]1[C@@H](O)[C@@]2(O)c3c(cc4c(c3OC)OCO4)O[C@@]2(c2ccc(OC)cc2)[C@@H]1c1ccccc1 [PANNELLIN]	> 200	> 200	> 200	171 (≈ 338 µM)	50 (≈ 98.7 µM)	11 (≈ 21.7 µM)	> 200	200 (≈ 395 µM)	0.06 (≈ 0.118 µM)	–
